Source: patent US20250255847A1, “[…]s: Novel Drugs for Triple Negative Breast Cancer” (SIMMARON RSEARCH INC, priority 2024, published 2025)
pEC50: −log10 of the molar value.

Assays:
[1] = system: MDA-MB-468 TNBC cells; test: LDH release cytotoxicity assay in MDA-MB-468 cells; type: cell-based, human; conditions: 48 hrs; for pEC50: Homo sapiens, MDA-MB-468, LDH release, read-out: CT50 (half-response of cytotoxicity)
Experimental: (§1) FIG. 11 illustrates an embodiment of the present invention and illustrates SIM-1 and SIM-2 induced apoptosis in MDA-MB-468 TNBC cells, but not HMEC control cells. MDA-MB-468 cells were treated with increasing doses of (A) SIM-1 and (B) SIM-2 for 48 hrs followed by lactate dehydrogenase (LDH) release assay in the supernatants. The result was offset with cell-bound LDH and presented as a percent of DMSO control as discussed under method section. Half-maximal cytotoxicity or CT50 analyses were performed plotting maximum response as an index of increasing doses of (C) SIM-1 and (D) SIM-2. AnnexinV (green) and propidium iodide (red) dual-labeling were performed to evaluate apoptotic response in MDA-MB-468 cells once treated with increasing doses of (E) SIM-1 and (F) SIM-2 for 24 hrs. Nuclei were stained with DAPI. TUNEL assay was performed in MDA-MB-468 cells after treatment with 25 nM of (G) SIM-1. Brown-colored TUNEL bodies were visualized at cresyl violet-stained blue nuclei. (H) The number of TUNEL bodies were counted as a percent of 100 cresyl violet-stained blue cells. Ten independent images were counted for the quantification study. Similarly, SIM-2 was assessed for (I) TUNEL and (J) subsequent quantification analyses. One-way ANOVA was performed to test the significance of mean between groups at **p<0.01 and ****p<0.0001. (K) LDH release assay was performed in non-tumor origin human mammary epithelial cells (HMEC) once treated with increasing doses of SIM-1 and SIM-2 for 48 hrs. Ns=no significance. (L) Annexin V (green) and propidium iodide (red) staining was performed in 25 nM SIM-1- and SIM-2-treated HMEC cells. Nuclei were stained with DAPI. Results are confirmed after three different experiments.
LDH Assay. LDH Assay was performed as per manufacturer's instructions (Cat #: 2570393; Vendor: Thermo Fisher Scientific). MDA-MB-468 and HMEC cells were treated with SIMPYRA-1 and SIMPYRA-2 at doses of 2 nM, 5 nM, […] 25 nM. Each dose was measured in triplicates. After 48 hours of incubation at 37° C., 50 μL of soup from each well was harvested and transferred into a new 96 well plate. Each well was treated with 50 μL of reaction mix (Substrate Mixture+deionized water+Assay Buffer). The reaction was stopped with 50 μL of Stop Solution. The plate was read at 490 nm (background at 680 nm).
(§2) This example provides a representative experiment that studies if SIM-1 and SIM-2 promoted the death of TNBC cells. The following experiments were adopted to confirm the apoptosis of TNBC cells. […] During apoptosis, phosphatidyl serine of the plasma membrane flips from the inner to the outer membrane which can be detected by Annexin V labeling, whereas PI stains the nucleus of a cell with compromised integrity of the plasma membrane. […]

[2] = system: MDA-MB-468 TNBC cells; test: Annexin V / propidium iodide dual labeling in MDA-MB-468 cells; type: cell-based, human; conditions: 24 hrs; for membrane labeling of Annexin V and nuclear staining of PI: increasing doses
Experimental: as §1
Annexin V/PI Dual Staining Protocol. Annexin V/PI Dual Staining was performed as per manufacturer's instruction (Cat #: 2752665; Vendor: Thermo Fisher Scientific). Chamber slides of MDA-MB-468 cells in serum-free media were treated with SIMPYRA-1 and SIMPYRA-2 at doses of 2 nM, 5 nM, 10 nM, […] 50 nM for 24 hours at 37° C. Each well was washed with 1×PBS, then treated with 1× annexin-binding buffer, 100 ug/mL PI solution, and Annexin V solution. Chamber slides were incubated in the dark at room temperature for 2 hours. Each well was washed twice with 1×PBS and once with 1:500 dilution of DAPI in 1×PBS. Cells were imaged using CaptaVision+™ Software.
as §2, with “death” for “death of TNBC cells. The following experiments were adopted to confirm the apoptosis”

SMILES | concentration of maximum cell death (LDH release) [1] [nM] | pEC50 [1] | concentration of maximum Annexin V / PI labeling [2] [nM] | membrane labeling of Annexin V and nuclear staining of PI [2]
CCOC(=O)c1c(NC(C)=O)sc2c(Cl)c(/C=N/O)ccc12 [SIM-2, ethyl 2-acetamido-7-chloro-6-(hydroxyiminomethyl)-1-benzothiophene-3-carboxylate] | 20 | 7.74 | 25 | dose-dependently increased
O=C(O)CCC(=O)NCc1csc2ccc(Cl)cc12 [SIM-1, 4-[(5-chloro-1-benzothiophen-3-yl)methylamino]-4-oxobutanoic acid] | 20 | 7.68 | 25 | dose-dependently increased
